How the values were obtained:
rNTS2 [1] = molecular target: T1, rNTS2 (Rattus norvegicus, UniProt Q63384); experiment: FLIPR calcium mobilization assay in CHO cell line stably expressing rNTS2; assay type: cell-based
T1 sequence (Q63384 1-416): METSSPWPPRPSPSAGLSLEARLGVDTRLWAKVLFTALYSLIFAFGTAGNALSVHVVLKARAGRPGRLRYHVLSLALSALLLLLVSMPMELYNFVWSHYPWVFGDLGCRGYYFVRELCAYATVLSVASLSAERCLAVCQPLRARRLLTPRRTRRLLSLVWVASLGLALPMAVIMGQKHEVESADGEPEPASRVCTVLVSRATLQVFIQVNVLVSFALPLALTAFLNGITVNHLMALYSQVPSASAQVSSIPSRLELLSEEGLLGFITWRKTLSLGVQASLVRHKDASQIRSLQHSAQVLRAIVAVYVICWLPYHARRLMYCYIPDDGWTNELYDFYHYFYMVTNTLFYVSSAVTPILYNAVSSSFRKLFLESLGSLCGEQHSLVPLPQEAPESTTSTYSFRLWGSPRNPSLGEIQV

rNTS2 [2] = molecular target: T1, rNTS2; settings: Emax value is % of 4; cited from earlier work
rNTS1 = rNTS1 (Rattus norvegicus, UniProt P20789); settings: read-out: Binding Assay NTS1 Ki; [125I]NT, bound; cited from earlier work
rNTS1, sequence (P20789 whole entry): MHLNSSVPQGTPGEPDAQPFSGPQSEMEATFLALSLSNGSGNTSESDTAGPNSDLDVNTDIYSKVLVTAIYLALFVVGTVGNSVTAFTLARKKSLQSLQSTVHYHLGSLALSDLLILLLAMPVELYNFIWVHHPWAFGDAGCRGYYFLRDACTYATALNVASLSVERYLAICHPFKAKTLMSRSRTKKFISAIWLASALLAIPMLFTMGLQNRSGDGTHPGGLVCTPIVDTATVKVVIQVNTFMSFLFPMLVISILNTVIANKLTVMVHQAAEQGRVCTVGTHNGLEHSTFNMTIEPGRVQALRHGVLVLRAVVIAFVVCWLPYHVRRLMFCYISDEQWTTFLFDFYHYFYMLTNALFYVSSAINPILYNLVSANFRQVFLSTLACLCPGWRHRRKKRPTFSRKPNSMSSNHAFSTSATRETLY

rNTS2 [3] = molecular target: T1, rNTS2; experiment: [125I]NT competition binding assay at NTS2; settings: relative to 9
NTS1 = NTS1 (Rattus norvegicus, UniProt P20789); experiment: FLIPR calcium mobilization assay at NTS1; assay type: cell-based; settings: 17: agonist and antagonist screen at 10 μM; 9, 14b, 16b: data not shown
NTS1, sequence (P20789 whole entry): as above

SMILES: COc1cccc(OC)c1-c1cc(C(=O)NC2(C(=O)O)C3CC4CC(C3)CC2C4)nn1-c1ccc(C(=O)N(C)CCCN(C)C)cc1C(C)C (centres unmarked) [Compound 4, reference compound]
- Emax (rNTS2 [1]; CHO, read-out: FLIPR Assay NTS2 Emax): 100 ± 5%

SMILES: C[C@@H]1CN([C@H]2CC[C@](C#N)(c3ccc(F)cc3)CC2)CC[C@]1(C(=O)O)c1ccccc1 [Compound 5, levocabastine]
- FLIPR Assay NTS2 Emax (rNTS2 [2]): 16±3%
- Ki (rNTS1): > 25 µM

SMILES: COc1cccc(OC)c1-c1nc(C(=O)N[C@H](C(=O)O)C2CCCCC2)nc2ccc(Cl)cc12 [Compound 14b]
- Fold weaker than 9 in NTS2 binding (Ki) (rNTS2 [3]): 5 fold
- Fold less active than NT in the NTS2 functional assay (rNTS2 [1]; IC50 comparison with NT): 25 fold
- Activity in the calcium mobilization assay at NTS1 (NTS1): failed to show activity

SMILES: COc1cccc(OC)c1-c1nc(C(=O)NC2(C(=O)O)CCCCC2)nc2ccc(Cl)cc12 [Compound 16b]
- Fold weaker than 9 in NTS2 binding (Ki) (rNTS2 [3]): 11 fold
- Fold lower activity than 9 in NTS2 FLIPR assay (EC50) (rNTS2 [1]; relative to 9): roughly 10 fold
- Activity in the calcium mobilization assay at NTS1 (NTS1): failed to show activity

SMILES: O=C(O)c1cc(Nc2nc(-c3ccccc3)c3cc(Cl)ccc3n2)ccc1O [Compound 17]
- Activity in the calcium mobilization assay at NTS1 (NTS1): devoid of activity

SMILES: COc1cccc(OC)c1-c1cc(C(=O)N[C@@H](CC(C)C)C(=O)O)nn1-c1ccc(F)cc1 [Compound 21, reference compound]
- inhibition at 10 µM (rNTS2 [1]; CHO, read-out: % inhibition of calcium release mediated by 4 at NTS2): < 30%

— PMC4296974 (Bioorganic & medicinal chemistry letters, 2014)
